Tests used:
[1] = system: rabbit platelets; assay: Aggregation of washed rabbit platelet suspension induced by AA, PAF, collagen, U-46619, ADP and thrombin; assay type: cell-based
Experimental: A. Preparation of aggregation inducing agent
1. Collagen (bovine tendon) in 15 mM aqueous acetic acid was homogenized at 4° C. to form a well dispersed suspension in 1 mg/ml and stocked at -70° C. Before using, it was thawed and well homogenized.
2. PAF was dissolved in CCl4 and stocked at […] Before using, it was diluted with deionized water.
3. […] and sodium arachidonate (AA) were dissolved in deionized water for use.
B. Preparation of platelets
A suspension of platelets was prepared according to the reported method. EDTA (100 mM) and the blood obtained from rabbit's ear vein were mixed in the ratio of 1:4, and immediately centrifuged (120× g) at room temperature for 10 minutes. Platelet-rich plasma was subjected to further centrifuge (500× g) for another 10 minutes. After the plasma was removed, the platelets in the lower layer were suspended in the Tyrode solution containing EDTA (2 mM) and bovine serum albumin (3.5 mg/ml), and subjected to centrifuge (500× g) again for 10 minutes. The platelets obtained were suspended in a Tyrode solution containing no EDTA, and was adjusted to about 4.5×10^8 cells/ml by a cell counter. 1 mM of calcium ion (Ca^2+) was added to the suspension. 30 minutes after the addition, the experiment was conducted. The composition of Tyrode […]: NaCl (136.9), KCl (2.7), NaH2 PO4 (0.4), NaHCO3 (11.9), glucose (11.1).
C. Platelet aggregation and ATP release reaction test
The method reported by Born (J. Physiol. 168, 178, 1963) was used to determine the platelet aggregation by a Lumi-aggregometer (Model 1020, Payton, Canada). Platelet suspension (0.4 ml) was added into a small glass tube coated with silicone, and stirred at 900 rpm with a small magnetic stirrer. Unless otherwise specified, the antagonist was added 1 minute before the inducing agent, and all the reactions were carried out at 37° C. The aggregation was calculated by following formula: […]
aggregation (% )=(light absorption before adding inducing agent-light absorption after adding inducing agent)/(light absorption before adding inducing agent-light absorption of Tyrode solution)×100% […]
| Platelets were precincubated with 1a, 1b, 1c, 1e, 2 or DMSO (0.5%, | control) at 37° C. for 3 min, then the inducer was added.

[2] = system: TXA2 receptor; assay: Large scale screening test: TXA2 receptor antagonism; assay type: biochemical

For `COc1cc(CC(C)C(C)C(=O)c2ccc(O)c(OC)c2)ccc1O` (stereo not drawn) [Compound 1, cinnamophilin], the “Aggregation (%)” value ([1]; inducer AA (100 μM), conc 5 μM, control 92.1 ± 1.3) was 83.8 ± 4.6%, the “Aggregation (%)” value ([1]; inducer AA (100 μM), conc 10 μM, control 92.1 ± 1.3) was 79.0 ± 6.3% and the “Aggregation (%)” value ([1]; inducer AA (100 μM), conc 20 μM, control 92.1 ± 1.3) was 42.4 ± 3.0%. The “Aggregation (%)” value ([1]; inducer AA (100 μM), conc 50 μM, control 92.1 ± 1.3) was 3.8 ± 3.5%, the “Aggregation (%)” value ([1]; inducer ADP (20 μM), conc 300 μM, control 81.6 ± 3.0) was 75.6 ± 9.2% and the “Aggregation (%)” value ([1]; inducer PAF (2 ng/ml), conc 300 μM, control 91.7 ± 2.0) was 83.5 ± 8.0%. For the same compound, the “Aggregation (%)” value ([1]; inducer U-46619 (1 μM), conc 200 μM, control 89.4 ± 1.2) was 22.1 ± 2.4%, the “Aggregation (%)” value ([1]; inducer collagen (10 μg/ml), conc 50 μM, control 93.6 ± 1.0) was 87.0 ± 1.6% and the “Aggregation (%)” value ([1]; inducer collagen (10 μg/ml), conc 100 μM, control 93.6 ± 1.0) was 44.7 ± 10.0%. The “Aggregation (%)” value ([1]; inducer collagen (10 μg/ml), conc 200 μM, control 93.6 ± 1.0) was 0.0 ± 0.0%, the “Aggregation (%)” value ([1]; inducer thrombin (0.1 U/ml), conc 300 μM, control 94.8 ± 2.0) was 94.6 ± 1.4% and the “TXA2 receptor antagonizing property” value [2] was “TXA2 receptor antagonizing properties”.
